Active and inactive are the calls of the source. The calls are words filed in the database; no cut-off is given here.
Experiments:
MDA-MB-231 [1] = experiment: Inhibition of MDA-MB-231 cell proliferation after seven days at 12.5 uM; format: functional; details: Homo sapiens, MDA-MB-231, 168 h
[2] = molecular target: T1, Retinoic acid receptor beta (Homo sapiens) (UniProt P10826); experiment: Percent transcriptional activation of Retinoic acid receptor beta at 1 uM compared to 1 uM trans-retinoic acid
T1 sequence (whole entry): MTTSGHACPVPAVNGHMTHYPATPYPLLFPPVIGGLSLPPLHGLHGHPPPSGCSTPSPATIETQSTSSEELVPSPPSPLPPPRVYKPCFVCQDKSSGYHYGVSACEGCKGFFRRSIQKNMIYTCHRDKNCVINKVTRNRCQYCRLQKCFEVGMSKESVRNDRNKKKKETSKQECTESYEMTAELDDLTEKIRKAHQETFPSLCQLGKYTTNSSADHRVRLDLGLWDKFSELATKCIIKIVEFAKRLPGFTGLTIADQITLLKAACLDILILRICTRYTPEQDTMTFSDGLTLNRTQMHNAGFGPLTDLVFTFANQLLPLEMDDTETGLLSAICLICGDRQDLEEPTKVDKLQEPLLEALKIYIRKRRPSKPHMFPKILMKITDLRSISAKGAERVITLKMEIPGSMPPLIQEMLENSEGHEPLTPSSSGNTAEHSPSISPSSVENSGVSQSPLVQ

[3] = molecular target: T2, Retinoic acid receptor gamma (Homo sapiens) (UniProt P13631); experiment: Percent transcriptional activation of Retinoic acid receptor RAR gamma receptor at 1 uM compared to 1 uM trans-retinoic acid
T2 sequence (whole entry): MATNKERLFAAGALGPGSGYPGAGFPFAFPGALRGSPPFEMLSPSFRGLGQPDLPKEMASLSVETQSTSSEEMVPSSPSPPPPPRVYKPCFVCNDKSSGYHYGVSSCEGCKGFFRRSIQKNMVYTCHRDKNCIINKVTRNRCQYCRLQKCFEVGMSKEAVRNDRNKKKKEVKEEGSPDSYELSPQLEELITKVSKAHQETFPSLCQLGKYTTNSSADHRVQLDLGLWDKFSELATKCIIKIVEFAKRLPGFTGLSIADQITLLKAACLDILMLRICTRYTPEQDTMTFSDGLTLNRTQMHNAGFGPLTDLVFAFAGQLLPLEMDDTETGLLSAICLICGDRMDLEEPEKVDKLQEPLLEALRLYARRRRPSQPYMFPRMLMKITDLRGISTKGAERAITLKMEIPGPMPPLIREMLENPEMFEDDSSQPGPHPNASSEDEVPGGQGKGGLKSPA

[4] = molecular target: T3, Retinoic acid receptor alpha (Homo sapiens) (UniProt P10276); experiment: Percent transcriptional activation of Retinoic acid receptor RAR alpha at 1 uM compared to 1 uM trans-retinoic acid
T3 sequence (whole entry): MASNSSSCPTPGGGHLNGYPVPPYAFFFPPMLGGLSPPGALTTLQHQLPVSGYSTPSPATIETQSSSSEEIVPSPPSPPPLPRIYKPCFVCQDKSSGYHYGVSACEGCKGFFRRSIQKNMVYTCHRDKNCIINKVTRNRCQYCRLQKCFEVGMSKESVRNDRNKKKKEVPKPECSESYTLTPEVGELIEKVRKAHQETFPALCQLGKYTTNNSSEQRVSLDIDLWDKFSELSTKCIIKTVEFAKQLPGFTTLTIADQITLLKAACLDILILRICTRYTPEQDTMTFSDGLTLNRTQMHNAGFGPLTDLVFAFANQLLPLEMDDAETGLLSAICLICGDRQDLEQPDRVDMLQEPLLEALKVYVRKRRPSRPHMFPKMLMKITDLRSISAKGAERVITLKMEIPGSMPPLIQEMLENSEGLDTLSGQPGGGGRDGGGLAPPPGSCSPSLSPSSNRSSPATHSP

MDA-MB-231 [5] = experiment: Effect on MDA-MB-231 cell proliferation with compound 8; Significant inhibition; format: functional, cell-based; details: Homo sapiens
MDA-MB-231 [6] = experiment: Effect on MDA-MB-231 cell proliferation; No effect; format: functional, cell-based; details: Homo sapiens
[7] = molecular target: T4, Retinoic acid receptor RXR-alpha (Homo sapiens, UniProt P19793); experiment: Transcriptional activation in CV-1 cells expressing Retinoid X receptor RXR-alpha; format: cell-based, Cercopithecidae
T4 sequence (P19793 whole entry): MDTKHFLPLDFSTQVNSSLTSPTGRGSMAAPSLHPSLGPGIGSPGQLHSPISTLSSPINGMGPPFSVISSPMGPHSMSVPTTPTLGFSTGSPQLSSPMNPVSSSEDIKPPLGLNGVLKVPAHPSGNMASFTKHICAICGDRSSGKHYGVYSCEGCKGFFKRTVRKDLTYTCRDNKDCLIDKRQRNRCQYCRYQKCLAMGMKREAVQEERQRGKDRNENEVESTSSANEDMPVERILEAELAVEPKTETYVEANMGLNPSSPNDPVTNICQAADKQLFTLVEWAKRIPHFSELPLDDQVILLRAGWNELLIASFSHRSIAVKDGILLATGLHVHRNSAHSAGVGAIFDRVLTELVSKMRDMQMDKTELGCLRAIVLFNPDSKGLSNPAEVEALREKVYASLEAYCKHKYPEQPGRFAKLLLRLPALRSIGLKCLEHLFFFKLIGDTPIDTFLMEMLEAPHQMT

MDA-MB-231 [8] = experiment: Effect on MDA-MB-231 cell proliferation with trans-RA; No inhibition; format: functional, cell-based; details: Homo sapiens
MDA-MB-231 [9] = experiment: Effect on MDA-MB-231 cell proliferation; No inhibition; format: functional, cell-based; details: Homo sapiens
MDA-MB-231 [10] = experiment: Inhibition of MDA-MB-231 cell proliferation after seven days; format: functional, cell-based; details: Homo sapiens, MDA-MB-231, 168 h
[11] = molecular target: T4, Retinoic acid receptor RXR-alpha; experiment: Transcriptional activation in CV-1 expressing retinoid X receptor RXR alpha

What does the source list for CC1=C(/C=C/C(C)=C\C=C\C(C)=C\C(=O)O)C(C)(C)CCC1 [ALITRETINOIN]?
inhibition at 12.5 µM (MDA-MB-231 [1]): 45%; Activation [2]: 112%; Activation [3]: 126%; Activation [4]: 105%

What does the source list for CC1=C(/C=C/C(C)=C/C=C/C(C)=C/C(=O)O)C(C)(C)CCC1?
Activity (MDA-MB-231 [5]): Active; Activity (MDA-MB-231 [6]): inactive

With CC(C)=C(c1ccc(C(=O)O)cc1)c1ccc2c(c1)C(C)(C)CCC2(C)C as the compound, how does the AC50 [7] read?
Its AC50 is 160 nM.

For CC(C)/C=C(/c1ccc(C(=O)O)cc1)c1ccc2c(c1)C(C)(C)CCC2(C)C, which AC50 [7] is on record?
The AC50 was over 1000 nM.

What does the source list for CC(C)=C(c1ccc(C(=O)O)cc1)c1cc2c(cc1C)C(C)(C)CCC2(C)C?
Activity (MDA-MB-231 [8]): inactive; Activity (MDA-MB-231 [9]): inactive; AC50 [7]: 22 nM

What does the source list for CC1(C)CCC(C)(C)c2cc(C(=C3CC3)c3ccc(C(=O)O)cc3)ccc21?
IC50 (MDA-MB-231 [10]): 1100 nM; AC50 [7]: 5 nM

Cc1cc2c(cc1C(=C1CC1)c1ccc(C(=O)O)cc1)C(C)(C)CCC2(C)C was tested. Which AC50 [7] did it give?
Its AC50 is under 10 nM.

For CC1(C)CCC(C)(C)c2cc(-c3cccc4cc(C(=O)O)ccc34)ccc21, which AC50 [11] is on record?
The AC50 was over 1000 nM.

Source: ChEMBL document CHEMBL1133192, “sp2-bridged diaryl retinoids: effects of bridge-region substitution on retinoid X receptor (RXR) selectivity” (Bioorg Med Chem Lett, 2000)
